How the values were obtained:
[1] = test system: MDA-MB-468 breast cancer cells; experiment: Trypan Blue exclusion assay (proliferation, cell death) in MDA-MB-468 cells; type: cell-based, human; conditions: 5 nM p27 siRNA; 50 μM GGTI-2417 or 1 μM taxol
Experimental: Human MDA-MB-468 and MDA-MB-231 breast cancer cells and murine NIH 3T3 cells were obtained from the ATCC and cultured in DMEM medium. Human SK-Br3 and BT-474 breast cancer cells (ATCC) were cultured in McCoy's 5a medium and Hybri-Care medium, respectively. Mouse embryonic fibroblast (MEF) cells from p27 wild-type and p27 null mice were grown in DMEM. All media were supplemented with 10% fetal calf serum, 10 units/ml penicillin, and 10 μg/ml streptomycin. Subconfluent cells were treated with different concentrations of GGTI, FTI or DMSO vehicle for specific time periods. After treatment, cells were harvested by trypsinization.
Pre-designed siRNA to p27 (Cat #118714) and the negative control (Cat #4611) were purchased from Ambion (Austin, Tex.). Twenty-four hours before transfection, MDA-MB-468 cells were plated onto twelve-well plates in fresh DMEM medium containing 10% FBS and no antibiotics. Transient transfection of siRNA was carried out using Oligofectamine reagent (Invitrogen, Carlsbad, Calif.), following the manufacturer's instructions. In brief, 5 nM of p27 siRNA or control siRNA were mixed with Opti-MEM medium (Invitrogen) in such a way so that the total volume went to 90 μl, and then complexed with a mixture of 2 μl of Oligofectamine and 8 μl Opti-MEM; the total volume of RNA:Oligofectamine complex was 100 μl. The RNA:Oligofectamine complex was then incubated for 20 min at room temperature before adding to the cells. Before transfection, the old medium was discarded, cells were washed once with fresh Opti-MEM and 400 μl of fresh Opti-MEM placed into each well before adding the RNA:Oligofectamine complex to each well. The final diluted volume on each well was 500 μl. After 8 h, 500 μl DMEM containing 30% FBS was added to each well and cells were further incubated for 40 h.
Adherent cells were harvested by trypsinization and diluted with 0.4% Trypan Blue dye and counted on a hemacytometer. Cells excluding the dye were scored as live cells, whereas cells absorbing the dye were scored as dead cells. Cell proliferation was determined by dividing the number of live cells in the treated sample by the number of live cells in the control, and the degree of cell death was expressed as percentage of dead cells of the total cell number.

FTase = target: T1, FTase (Homo sapiens, UniProt P49354+P49356); experiment: In vitro FTase activity assay ([3H]FPP transfer to H-Ras-CVLS); type: biochemical; conditions: read-out: IC50, inhibition of FTase activity
T1 construct: GGTase I and FTase activities from 60,000×g supernatants of human Burkitt's lymphoma (Daudi) cells; host or cells: Daudi (human Burkitt's lymphoma) cells, 60,000xg supernatant
Experimental: (§1) A brief discussion of exemplary materials and methods follows. In vitro FTase and GGTase I activity assays were performed. GGTase I and FTase activities from 60,000×g supernatants of human Burkitt's lymphoma (Daudi) cells (American Type Culture Collection (ATCC), Rockville, Md.) were assayed as described previously.

[2] = test system: MDA-MB-231 breast cancer tumors; experiment: Anti-tumor activity in the nude mouse tumor xenograft model; type: in vivo, nude mice; conditions: for average tumor size: vehicle 860±87
Experimental: Nude mice (nu/nu, Charles River, Wilmington, Mass.) were maintained in accordance with the Institutional Animal Care and Use Committee (IACUC) procedures and guidelines. MDA-MB-231 cells were harvested via trypsinization, pelleted at 805×g for 5 min, and re-suspended in a 50:50 mixture of sterile PBS and Matrigel (BD Biosciences) at 10×10^6 cells per 100 μl. A volume of 100 μl (˜10×10^6 cells) was injected orthotopically into the upper mammary fat pads of nude mice. The tumor xenografts were monitored by electronic caliper measurements and tumor volume (V) was calculated using the formula V=W^2L/2, where width (W) is […]. When the tumors reached ˜100 mm^3, the animals were randomized and injected intraperiteoneally daily with vehicle (70% DMSO), or 100 mg/kg GGTI-2417 or GGTI-2418, or every third day with GGTI-2418 (200 mg/kg. Tumors were measured every third day for 12-18 days.

p27, Rap1, phospho-Akt = experiment: Western blot of tumor biopsies from ErbB2 transgenic mice; type: in vivo, mouse
Text: (§2) A breeding pair of homozygous FVB/N-Tg (MMTVneu) 202Mul/J mice (JAX #002376, Bar Harbor, Me.) was used to generate a transgenic colony in accordance to IACUC protocols and procedures. Phenotypically, these mice overexpress the receptor tyrosine kinase ErbB2 driven by the MMTV promoter, which results in tumor formation at ˜200 days of age. Once tumors reached sizes above 800 mm^3, osmotic mini-pumps (Alzet, Cupertino, Calif.) were loaded with either vehicle (80% PEG300; 20% DMSO) or GGTI-2418 (100 mg/kg daily) and implanted subcutaneously under the dorsal surface of the mouse, between the shoulder blades. Vehicle or GGTI-2418 was constantly delivered for 14 days, during which tumor volumes were measured and calculated as described above. Tumor biopsies were snap frozen in liquid N2 and stored at −80° C. until further processed. Weighted tumor samples were mixed with the appropriate amount of T-PER® Tissue Protein Extraction Reagent (Pierce, Rockford, Ill.) containing protease inhibitor cocktail, 2 mM PMSF, 2 mM Na3VO4, and 6.4 mg/ml p-nitrophenylphosphate and homogenized with the PCR Tissue Homogenizing Kit (Fisher Scientific). The homogenate was centrifuged at 13,000×g for 30 min at 4° C. and the supernatant was subjected to Western blotting with the indicated antibodies.

[3] = test system: ErbB2-driven mammary tumors; experiment: Anti-tumor activity in the ErbB2 transgenic mouse model; type: in vivo
Text: as §2

GGTase I = target: T2, GGTase I (Homo sapiens, UniProt P49354+P53609); experiment: In vitro GGTase I activity assay ([3H]GGPP transfer to H-Ras-CVLL); type: biochemical
T2 construct: GGTase I and FTase activities from 60,000×g supernatants of human Burkitt's lymphoma (Daudi) cells; host or cells: Daudi (human Burkitt's lymphoma) cells, 60,000xg supernatant
Experimental: as §1

Cdk2 = conditions: previous report (Adnane et al. 1998); cited from earlier work

Q: For `CC(=O)O[C@H]1C(=O)[C@@]2(C)[C@H]([C@H](OC(=O)c3ccccc3)[C@]3(O)C[C@H](OC(=O)[C@H](O)[C@@H](NC(=O)c4ccccc4)c4ccccc4)C(C)=C1C3(C)C)[C@]1(OC(C)=O)CO[C@@H]1C[C@@H]2O` [taxol, reference compound], which “tumor cell death in the presence of p27 siRNA” value [1] is on record?
A: could still die

Q: Which results are given for `Cc1nc[nH]c1CN1CCN(C(=O)N[C@@H](CC(C)C)C(=O)O)[C@@H](Cc2ccccc2)C1=O` [GGTI-2418]?
A: IC50 (FTase): 53000 ± 11000 nM; tumor growth inhibition ([2]; 100 mg/kg daily i.p.): 94%; average tumor size ([2]; 100 mg/kg daily i.p.): 139±17 mm^3; tumor growth inhibition ([2]; 200 mg/kg every 3rd day i.p.): 77%; average tumor size ([2]; 200 mg/kg every 3rd day i.p.): 276±26 mm^3; S473 phosphorylation of Akt in tumors (p27, Rap1, phospho-Akt; pre vs post treatment biopsies): dramatic decrease; geranylgeranylation of Rap1 in tumors (p27, Rap1, phospho-Akt; pre vs post treatment biopsies): inhibited the geranylgeranylation of Rap1; change of p27 in post-treatment tumor samples (densitometry) (p27, Rap1, phospho-Akt; vehicle 0.63±0.19 fold, p=0.03): 2.68±0.63 fold; tumor regression, average (S.E.M.) ([3]; 100 mg/kg, 7 mice, 17 tumors): 60±4%; tumor decrease, representative example ([3]; 100 mg/kg/day, osmotic mini-pump): 76%; Ki (GGTase I; in vitro competition assay, read-out: Ki, competitive inhibition of GGTase I against H-Ras-CVLL protein): 4.4 ± 1.6 nM; IC50 (GGTase I; in vitro, H-Ras-CVLL, [3H]GGPP, read-out: IC50, inhibition of GGTase I activity): 9.5 ± 2 nM

Q: For `COC(=O)[C@H](CC(C)C)NC(=O)c1ccc(NC[C@@H](N)CS)cc1-c1cccc2ccccc12` [GGTI-298], which Cdk2 activity (Cdk2) is on record?
A: inhibits Cdk2 activity
